Results: patent US20220401369A1, “SOLID DISPERSION OF PAN-RAF KINASE INHIBITOR” (DAY ONE BIOPHARMACEUTICALS, INC., priority 2019, published 2022)
Values after ≈ are worked out from the molar mass of the structure shown. Like-named read-outs stand apart in the source and are kept apart here.

Key:
[1] = Polymer screening by DSC (miscibility of Compound 1 in polymer); assay type: physicochemical
Procedure: Differential Scanning calorimetry (DSC) and Oil bath methods were applied to study solid dispersions comprising Compound 1. DSC is applied for the prediction of miscibility and solubility of Compound 1 in polymer.
Pure crystalline drug Compound 1 was physically mixed with each pure polymer. The equilibrium solution temperature (Tend) and Enthalpy (H) of Compound 1 in each 20% Compound 1 loaded physical mixture (PM) were measured for polymer screening by DSC (Discovery™ DSC, TA Instruments) with following steps;
−20° C. to over MP (melting point) of Compound 1 (206° C.) @1° C./min
From the endothermic peak of DSC, H and Tend were analyzed, and the change ratio A E between pure Compound 1 and PM was defined as miscibility parameters (Eq. 1). […] Therefore, the lower A E means the higher miscibility.

[2] = Solubility (24 h, 37° C.) in JP1 and JP2; assay type: physicochemical; conditions: thermodynamic from solid
[3] = 20% Compound 1 loaded physical mixture with polymer, pure Compound 1 as reference

DSC H (enthalpy) [1, 3]: 102.52 J/g | DSC Tend (equilibrium solution temperature) [1, 3]: 209.958 °C | DSC ΔE (miscibility parameter) ([1]; 20% Compound 1 loaded physical mixture, lower ΔE means higher miscibility): 2.00 | solubility at 24 h ([2]; aqueous buffer, JP2 (pH 6.8), Table 2, read-out: Solubility JP2): 1.1 µg/mL (≈ 2.17 µM) | solubility at 24 h ([2]; simulated gastric fluid, JP1 (pH 1.2), Table 2, read-out: Solubility JP1): 3.4 µg/mL (≈ 6.72 µM)
SMILES: C[C@@H](NC(=O)c1ncnc(N)c1Cl)c1ncc(C(=O)Nc2cc(C(F)(F)F)c(Cl)cn2)s1 [Compound 1, (R)-2-(1-(6-amino-5-chloropyrimidine-4-carboxamido)ethyl)-N-(5-chloro-4-(trifluoromethyl)pyridin-2-yl)thiazole-5-carboxamide]
